Measured values reported in PubChem BioAssay (NCI).
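Tested at 5 concentrations; 48 h exposure; 96-well plates; endpoints linearly interpolated, else capped at highest concentration. TGI: total growth inhibition.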

Tests used:
Assay in all cases: NCI-60 cell line screen, 48 h
MOLT-4 leukemia = tested on: MOLT-4 leukemia
UACC-62 melanoma = tested on: UACC-62 melanoma
A549 NSCLC = tested on: A549 NSCLC
SK-OV-3 ovarian = tested on: SK-OV-3 ovarian
RXF 393 renal = tested on: RXF 393 renal
IGROV1 ovarian = tested on: IGROV1 ovarian
OVCAR-5 ovarian = tested on: OVCAR-5 ovarian
HCT-116 colon = tested on: HCT-116 colon
EKVX NSCLC = tested on: EKVX NSCLC
SR leukemia = tested on: SR leukemia
SK-MEL-28 melanoma = tested on: SK-MEL-28 melanoma
KM12 colon = tested on: KM12 colon
SF-295 CNS = tested on: SF-295 CNS
HL-60(TB) leukemia = tested on: HL-60(TB) leukemia
KM20L2 colon = tested on: KM20L2 colon
CCRF-CEM leukemia = tested on: CCRF-CEM leukemia
A498 renal = tested on: A498 renal
HOP-62 NSCLC = tested on: HOP-62 NSCLC
UACC-257 melanoma = tested on: UACC-257 melanoma
DMS 273 small cell lung = tested on: DMS 273 small cell lung
RXF-631 renal = tested on: RXF-631 renal
M19-MEL melanoma = tested on: M19-MEL melanoma
UO-31 renal = tested on: UO-31 renal
HOP-92 NSCLC = tested on: HOP-92 NSCLC
DMS 114 small cell lung = tested on: DMS 114 small cell lung
HT29 colon = tested on: HT29 colon
SNB-78 CNS = tested on: SNB-78 CNS
NCI-H460 lung = tested on: NCI-H460 lung
TK-10 renal = tested on: TK-10 renal
NCI-H522 lung = tested on: NCI-H522 lung
M14 melanoma = tested on: M14 melanoma
ACHN renal = tested on: ACHN renal
NCI-H23 lung = tested on: NCI-H23 lung
OVCAR-8 ovarian = tested on: OVCAR-8 ovarian
U251 CNS = tested on: U251 CNS
SNB-19 CNS = tested on: SNB-19 CNS
HS 578T breast = tested on: HS 578T breast
COLO 205 colon = tested on: COLO 205 colon
NCI/ADR-RES ovarian = tested on: NCI/ADR-RES ovarian
MALME-3M melanoma = tested on: MALME-3M melanoma
MDA-MB-435 = tested on: MDA-MB-435
NCI-H226 lung = tested on: NCI-H226 lung
SF-268 CNS = tested on: SF-268 CNS
SNB-75 CNS = tested on: SNB-75 CNS
HCT-15 colon = tested on: HCT-15 colon
SF-539 CNS = tested on: SF-539 CNS
MDA-MB-231 breast = tested on: MDA-MB-231 breast
MCF7 breast = tested on: MCF7 breast
SW-620 colon = tested on: SW-620 colon
OVCAR-3 ovarian = tested on: OVCAR-3 ovarian
HCC-2998 colon = tested on: HCC-2998 colon
DU-145 prostate = tested on: DU-145 prostate
K-562 leukemia = tested on: K-562 leukemia
LOX IMVI melanoma = tested on: LOX IMVI melanoma
MDA-N = tested on: MDA-N
T-47D breast = tested on: T-47D breast
BT-549 breast = tested on: BT-549 breast
PC-3 prostate = tested on: PC-3 prostate
CAKI-1 renal = tested on: CAKI-1 renal
RPMI-8226 leukemia = tested on: RPMI-8226 leukemia
SK-MEL-2 melanoma = tested on: SK-MEL-2 melanoma
OVCAR-4 ovarian = tested on: OVCAR-4 ovarian
786-0 renal = tested on: 786-0 renal
SK-MEL-5 melanoma = tested on: SK-MEL-5 melanoma
SN12C renal = tested on: SN12C renal

`COc1ccccc1-c1csc(CCC(N)C(=O)O)n1` (stereo not given) showed a TGI (MOLT-4 leukemia) greater than 100 µM, a TGI (UACC-62 melanoma) greater than 100 µM and a TGI (A549 NSCLC) greater than 100 µM. For the same compound, the TGI (SK-OV-3 ovarian) was greater than 100 µM, the TGI (RXF 393 renal) was greater than 100 µM and the TGI (IGROV1 ovarian) was greater than 100 µM. The TGI (OVCAR-5 ovarian) was greater than 100 µM, the TGI (HCT-116 colon) was greater than 100 µM and the TGI (EKVX NSCLC) was greater than 100 µM. For the same compound, the TGI (SR leukemia) was greater than 100 µM, the TGI (SK-MEL-28 melanoma) was greater than 100 µM and the TGI (KM12 colon) was greater than 100 µM. For the same compound, the TGI (SF-295 CNS) was greater than 100 µM, the TGI (HL-60(TB) leukemia) was greater than 100 µM and the TGI (KM20L2 colon) was greater than 100 µM. The TGI (CCRF-CEM leukemia) was greater than 100 µM, the TGI (A498 renal) was greater than 100 µM and the TGI (HOP-62 NSCLC) was greater than 100 µM. It also gave a TGI (UACC-257 melanoma) greater than 100 µM, a TGI (DMS 273 small cell lung) greater than 100 µM and a TGI (RXF-631 renal) greater than 100 µM. It also gave a TGI (M19-MEL melanoma) greater than 100 µM, a TGI (UO-31 renal) greater than 100 µM and a TGI (HOP-92 NSCLC) greater than 100 µM. It also gave a TGI (DMS 114 small cell lung) greater than 100 µM, a TGI (HT29 colon) greater than 100 µM and a TGI (SNB-78 CNS) greater than 100 µM. The TGI (NCI-H460 lung) was greater than 100 µM, the TGI (TK-10 renal) was 75.4 µM and the TGI (NCI-H522 lung) was greater than 100 µM. The TGI (M14 melanoma) was greater than 100 µM, the TGI (ACHN renal) was greater than 100 µM and the TGI (NCI-H23 lung) was greater than 100 µM. For the same compound, the TGI (OVCAR-8 ovarian) was greater than 100 µM, the TGI (U251 CNS) was greater than 100 µM and the TGI (SNB-19 CNS) was greater than 100 µM.
Work on `O=C1OC(OC/C(Br)=C(\Br)COC2OC(=O)C(Cl)=C2Cl)C(Cl)=C1Cl` (stereo not given) yielded a TGI (HS 578T breast) of 31.7 µM, a TGI (COLO 205 colon) of 4.11 µM and a TGI (MOLT-4 leukemia) of 2.38 µM. The TGI (UACC-62 melanoma) was 16.9 µM, the TGI (A549 NSCLC) was 34.3 µM and the TGI (NCI/ADR-RES ovarian) was 25.2 µM. The TGI (SK-OV-3 ovarian) was 43 µM, the TGI (RXF 393 renal) was 6.1 µM and the TGI (MALME-3M melanoma) was 9.02 µM. The TGI (IGROV1 ovarian) was 26.3 µM, the TGI (MDA-MB-435) was 21.4 µM and the TGI (NCI-H226 lung) was 40.8 µM. It also gave a TGI (OVCAR-5 ovarian) of 30 µM, a TGI (HCT-116 colon) of 4.56 µM and a TGI (EKVX NSCLC) of 22.8 µM. For the same compound, the TGI (SR leukemia) was 2.16 µM, the TGI (SK-MEL-28 melanoma) was 22.1 µM and the TGI (SF-268 CNS) was 26.8 µM. The TGI (KM12 colon) was 55.7 µM, the TGI (SNB-75 CNS) was 39.4 µM and the TGI (SF-295 CNS) was 34.7 µM. It also gave a TGI (HCT-15 colon) of 10.1 µM, a TGI (HL-60(TB) leukemia) of 1.43 µM and a TGI (SF-539 CNS) of 21.9 µM. It also gave a TGI (MDA-MB-231 breast) of 10.3 µM, a TGI (MCF7 breast) of 25.4 µM and a TGI (SW-620 colon) of 9.9 µM. It also gave a TGI (CCRF-CEM leukemia) of 2.34 µM, a TGI (OVCAR-3 ovarian) of 14.5 µM and a TGI (A498 renal) of 34.1 µM. It also gave a TGI (HOP-62 NSCLC) of 29.5 µM, a TGI (UACC-257 melanoma) of 23.9 µM and a TGI (UO-31 renal) of 8.12 µM. The TGI (HCC-2998 colon) was 33.7 µM, the TGI (HOP-92 NSCLC) was 10.7 µM and the TGI (HT29 colon) was 9.77 µM. For the same compound, the TGI (DU-145 prostate) was 28.5 µM, the TGI (NCI-H460 lung) was 33.6 µM and the TGI (K-562 leukemia) was 5.55 µM. It also gave a TGI (LOX IMVI melanoma) of 8.29 µM, a TGI (MDA-N) of 14.3 µM and a TGI (T-47D breast) of 34.6 µM. The TGI (TK-10 renal) was 15.2 µM, the TGI (BT-549 breast) was 6.45 µM and the TGI (NCI-H522 lung) was 3.24 µM. For the same compound, the TGI (M14 melanoma) was 10.4 µM, the TGI (PC-3 prostate) was 27.8 µM and the TGI (CAKI-1 renal) was 5.54 µM. The TGI (ACHN renal) was 13.7 µM, the TGI (RPMI-8226 leukemia) was 3.94 µM and the TGI (SK-MEL-2 melanoma) was 35.9 µM. For the same compound, the TGI (OVCAR-4 ovarian) was 19.3 µM, the TGI (786-0 renal) was 6.4 µM and the TGI (NCI-H23 lung) was 14 µM. For the same compound, the TGI (SK-MEL-5 melanoma) was 22.3 µM, the TGI (OVCAR-8 ovarian) was 13.3 µM and the TGI (U251 CNS) was 19 µM. The TGI (SNB-19 CNS) was 34.3 µM and the TGI (SN12C renal) was 16.6 µM.
